Results taken from publication PMC7914897, “Cytotoxic Potential of a-Azepano- and 3-Amino-3,4-SeCo-Triterpenoids” (International Journal of Molecular Sciences, 2021).
Read-outs that look alike come from different tables or passages of the source.

How the values were obtained:
K-562 (Leukemia) = test: NCI-60 screen (SRB, 48 h); details: Homo sapiens
OVCAR-3 (Ovarian cancer) = test: cells; details: Homo sapiens
SK-MEL-28 (Melanoma) = test: NCI-60 screen (SRB, 48 h)
[1] = tested on: NCI-H322M (NSC lung cancer); test: NCI-60 screen (SRB, 48 h); details: Homo sapiens
Breast cancer subpanel = test: NCI-60 screen, subpanel; details: Homo sapiens
HT29 (Colon cancer) = test: NCI-60 screen (SRB, 48 h); details: Homo sapiens
[2] = tested on: A549/ATCC (NSC lung cancer); test: NCI-60 screen (SRB, 48 h); details: Homo sapiens
CCRF-CEM (Leukemia) = test: NCI-60 screen (SRB, 48 h); details: Homo sapiens
[3] = tested on: NCI-H23 (NSC lung cancer); test: NCI-60 screen (SRB, 48 h); details: Homo sapiens
UACC-257 (Melanoma) = test: NCI-60 screen (SRB, 48 h); details: Homo sapiens
Melanoma subpanel = test: NCI-60 screen, subpanel; details: Homo sapiens
BT-549 (Breast cancer) = test: NCI-60 screen (SRB, 48 h); type: cell-based; details: Homo sapiens
[4] = tested on: panel of approximately 60 cancer cell lines; test: NCI-60 screen (SRB, 48 h), full panel
UO-31 (Renal cancer) = test: NCI-60 screen (SRB, 48 h); details: Homo sapiens
[5] = tested on: MDA-MB-31/ATCC (Breast cancer); test: NCI-60 screen (SRB, 48 h); details: Homo sapiens
SK-MEL-2 (Melanoma) = test: NCI-60 screen (SRB, 48 h); details: Homo sapiens
RPMI-8226 (Leukemia) = test: NCI-60 screen (SRB, 48 h); details: Homo sapiens
HS 578T (Breast cancer) = test: NCI-60 screen (SRB, 48 h); details: Homo sapiens
Colon Cancer subpanel = test: NCI-60 screen, subpanel; details: Homo sapiens
LOX IMVI (Melanoma) = test: NCI-60 screen (SRB, 48 h); type: cell-based; details: Homo sapiens
DU-145 (Prostate cancer) = test: NCI-60 screen (SRB, 48 h); details: Homo sapiens
Leukemia subpanel = test: cells; details: Homo sapiens
Prostate cancer subpanel = test: NCI-60 screen, subpanel; details: Homo sapiens
[6] = tested on: NCI/ADR-RES (Ovarian cancer); test: NCI-60 screen (SRB, 48 h); details: Homo sapiens
SN12C (Renal cancer) = test: NCI-60 screen (SRB, 48 h); details: Homo sapiens
U251 (CNS cancer) = test: NCI-60 screen (SRB, 48 h); details: Homo sapiens
HCT-15 (Colon cancer) = test: NCI-60 screen (SRB, 48 h); details: Homo sapiens

SMILES: CC1(C)CC[C@]2(CO)CC[C@]3(C)C(=CC[C@@H]4[C@@]5(C)CCCNC(C)(C)[C@@H]5CC[C@]43C)[C@@H]2C1 [Compound 3, azepanoerythrodiol]
- GI50 (K-562 (Leukemia); K562): 0.4 µM
- IC (TGI) (K-562 (Leukemia); K562, 48 h, read-out: TGI): > 100 µM
- CC50 (K-562 (Leukemia); K562, read-out: LC50): > 100 µM
- GI50 (OVCAR-3 (Ovarian cancer); OVCAR-3): 1.96 µM
- IC (TGI) (OVCAR-3 (Ovarian cancer); OVCAR-3, 48 h, read-out: TGI): 3.84 µM
- CC50 (OVCAR-3 (Ovarian cancer); OVCAR-3, read-out: LC50): 7.52 µM
- GI50 (SK-MEL-28 (Melanoma); Homo sapiens, SK-MEL-28): 1.7 µM
- IC (TGI) (SK-MEL-28 (Melanoma); Homo sapiens, SK-MEL-28, 48 h, read-out: TGI): 3.14 µM
- CC50 (SK-MEL-28 (Melanoma); Homo sapiens, SK-MEL-28, read-out: LC50): 5.78 µM
- Growth % of the Most Sensitive Cell Lines (SK-MEL-28 (Melanoma); SK-MEL-28, 1 dose 10 µM): −81.53%
- GI50 [1]: 3.69 µM
- IC (TGI) ([1]; 48 h, read-out: TGI): 10.3 µM
- CC50 ([1]; read-out: LC50): 36 µM
- IC (TGI) (Breast cancer subpanel; 48 h, read-out: TGI MG_MID): 14.6 µM
- GI50 (Breast cancer subpanel; read-out: GI50 MG_MID): 3.12 µM
- CC50 (Breast cancer subpanel; read-out: LC50 MG_MID): 43.6 µM
- GI50 (HT29 (Colon cancer); HT-29): 1.59 µM
- IC (TGI) (HT29 (Colon cancer); HT-29, 48 h, read-out: TGI): 3.62 µM
- CC50 (HT29 (Colon cancer); HT-29, read-out: LC50): 8.23 µM
- GI50 ([2]; A549): 4.62 µM
- IC (TGI) ([2]; A549, 48 h, read-out: TGI): 17.8 µM
- CC50 ([2]; A549, read-out: LC50): 52.4 µM
- GI50 (CCRF-CEM (Leukemia)): 2.41 µM
- IC (TGI) (CCRF-CEM (Leukemia); 48 h, read-out: TGI): 8.96 µM
- CC50 (CCRF-CEM (Leukemia); read-out: LC50): > 100 µM
- GI50 ([3]; NCI-H23): 1.11 µM
- IC (TGI) ([3]; NCI-H23, 48 h, read-out: TGI): 24.6 µM
- CC50 ([3]; NCI-H23, read-out: LC50): 54.5 µM
- GI50 (UACC-257 (Melanoma); UACC-257): 2.49 µM
- IC (TGI) (UACC-257 (Melanoma); UACC-257, 48 h, read-out: TGI): 6.47 µM
- CC50 (UACC-257 (Melanoma); UACC-257, read-out: LC50): 27.6 µM
- IC (TGI) (Melanoma subpanel; 48 h, read-out: TGI MG_MID): 4.31 µM
- GI50 (Melanoma subpanel; read-out: GI50 MG_MID): 2.05 µM
- CC50 (Melanoma subpanel; read-out: LC50 MG_MID): 12.2 µM
- GI50 (BT-549 (Breast cancer); BT-549): 1.01 µM
- IC (TGI) (BT-549 (Breast cancer); BT-549, 48 h): 24.5 µM
- CC50 (BT-549 (Breast cancer); BT-549, read-out: LC50 (the source's name)): 59.2 µM
- Positive Cytostatic Effect (cell lines with percent growth 0 to 50 / total) ([4]; 1 dose 10 µM): 20/57
- Positive Cytotoxic Effect (cell lines with percent growth < 0 / total) ([4]; 1 dose 10 µM): 19/57
- number of cancer cell lines the compound was active against ([4]; 1 dose 10 µM): 30 cell lines
- activity at 10 µM ([4]; Homo sapiens, 48 h, read-out: Mean Growth, %): 18.9%
- activity at 10 µM ([4]; Homo sapiens, 48 h, read-out: Range of Growth, %): -88.4 to 89.3%
- IC (TGI) ([4]; Homo sapiens, 48 h, read-out: TGI MG_MID60, average over all cell lines): 15.5 µM
- GI50 ([4]; Homo sapiens, read-out: GI50 MG_MID60): 3.83 µM
- GI50 ([4]; Homo sapiens, read-out: GI50 against all human tumor cell lines): < 10 µM
- GI50 ([4]; Homo sapiens, read-out: GI50 against the most sensitive cell lines): 0.2 to 0.94 µM
- CC50 ([4]; Homo sapiens, read-out: LC50 MG_MID60, average over all cell lines): 32 µM
- selectivity indexes at TGI level (subpanels) ([4]; MG_MID60/subpanel MG_MID): 3.59–4.69
- GI50 (UO-31 (Renal cancer); UO-31): 10.5 µM
- IC (TGI) (UO-31 (Renal cancer); UO-31, 48 h, read-out: TGI): 25.5 µM
- CC50 (UO-31 (Renal cancer); UO-31, read-out: LC50): 62.1 µM
- GI50 [5]: 3.5 µM
- IC (TGI) ([5]; 48 h, read-out: TGI): 13 µM
- CC50 ([5]; read-out: LC50): 45.6 µM
- GI50 (SK-MEL-2 (Melanoma); SK-MEL-2): 3.25 µM
- IC (TGI) (SK-MEL-2 (Melanoma); SK-MEL-2, 48 h, read-out: TGI): 8.17 µM
- CC50 (SK-MEL-2 (Melanoma); SK-MEL-2, read-out: LC50): 36.7 µM
- GI50 (RPMI-8226 (Leukemia); RPMI-8226): 2.71 µM
- IC (TGI) (RPMI-8226 (Leukemia); RPMI-8226, 48 h, read-out: TGI): 10.1 µM
- CC50 (RPMI-8226 (Leukemia); RPMI-8226, read-out: LC50): > 100 µM
- GI50 (HS 578T (Breast cancer)): 6.16 µM
- IC (TGI) (HS 578T (Breast cancer); 48 h, read-out: TGI): 24.7 µM
- CC50 (HS 578T (Breast cancer); read-out: LC50): 77.4 µM
- IC (TGI) (Colon Cancer subpanel; 48 h, read-out: TGI MG_MID): 3.3 µM
- GI50 (Colon Cancer subpanel; read-out: GI50 MG_MID): 1.99 µM
- CC50 (Colon Cancer subpanel; read-out: LC50 MG_MID): 12.4 µM
- IC (TGI) (LOX IMVI (Melanoma); 48 h): 3.19 µM
- activity at 10 µM (LOX IMVI (Melanoma); 48 h, 1 dose 10 µM, read-out: Growth % of the Most Sensitive Cell Lines): -88.2%
- GI50 (LOX IMVI (Melanoma); read-out: GI50): 1.68 µM
- CC50 (LOX IMVI (Melanoma); read-out: LC50 (the source's name)): 6.05 µM
- GI50 (DU-145 (Prostate cancer); DU-145): 2.3 µM
- IC (TGI) (DU-145 (Prostate cancer); DU-145, 48 h, read-out: TGI): 4.7 µM
- CC50 (DU-145 (Prostate cancer); DU-145, read-out: LC50): 9.61 µM
- IC (TGI) (Leukemia subpanel; 48 h, read-out: TGI MG_MID): 54.8 µM
- GI50 (Leukemia subpanel; read-out: GI50 MG_MID): 2.03 µM
- CC50 (Leukemia subpanel; read-out: LC50 MG_MID): > 100 µM
- IC (TGI) (Prostate cancer subpanel; 48 h, read-out: TGI MG_MID): 4.02 µM
- GI50 (Prostate cancer subpanel; read-out: GI50 MG_MID): 1.89 µM
- CC50 (Prostate cancer subpanel; read-out: LC50 MG_MID): 8.54 µM
- GI50 [6]: 10.2 µM
- IC (TGI) ([6]; 48 h, read-out: TGI): 24 µM
- CC50 ([6]; read-out: LC50): 56.3 µM
- GI50 (SN12C (Renal cancer)): 4.02 µM
- IC (TGI) (SN12C (Renal cancer); 48 h, read-out: TGI): 16.8 µM
- CC50 (SN12C (Renal cancer); read-out: LC50): 45.6 µM
- GI50 (U251 (CNS cancer); U-251): 1.94 µM
- IC (TGI) (U251 (CNS cancer); U-251, 48 h, read-out: TGI): 4.18 µM
- CC50 (U251 (CNS cancer); U-251, read-out: LC50): 9 µM
- GI50 (HCT-15 (Colon cancer); HCT-15): 3.06 µM
- IC (TGI) (HCT-15 (Colon cancer); HCT-15, 48 h, read-out: TGI): 1.04 µM
- CC50 (HCT-15 (Colon cancer); HCT-15, read-out: LC50): 42.3 µM
